Counter-ions that a name gives are not always drawn. Like-named read-outs stand apart in the source and are kept apart here.
Legend:
synthetic hemozoin = assay: Depolymerization of synthetic hemozoin in vitro; type: biochemical; settings: 50 mM test compound, acetate buffer pH 5.0, 37° C., 16 hours
Method: This activity is evaluated by incubating a suspension of monomer-free hemozoin at 37° C. with compounds of the present invention for 16 hours. After incubation, hemozoin is separated from any solubilized heme and soluble heme oligomers, the oligomers depolymerized, and the heme present in the supernatants determined.
The synthesis of synthetic hemozoin is carried out as previously described (26). In brief, 60 μmoles of hematin was dissolved in 8 ml of 0.1N NaOH. Following dissolution 49 mmoles of glacial acetic acid was added and the suspension heated at 70° C. overnight. The precipitate was then washed extensively with LPS-free water. In order to remove unreacted heme the precipitate was extracted with 0.1M sodium bicarbonate (pH 9.1) for three hours. The remaining insoluble material was recovered by centrifugation, resuspended in EtOH and transferred to sterile Eppendorf tubes. The material was washed several times in EtOH and finally resuspended in LPS-free double-distilled H2O. The hemozoin preparation was then tested for endotoxin by using the Limulus Amebocyte Lysate test following manufacturer's instructions. Although the preparation of LPS-free hemozoin from native or synthetic sources is not critical for in vitro depolymerization studies, it is critical for studies involving monocytes and animals (see Examples below). Small amounts of LPS can evoke a considerable cytokine response and interfere with interpretation of results. The amount of heme in the final product was determined from a small aliquot using the pyridine-hemochrome method as previously described (26). The preparations are stored at 4° C. until used.
A suspension of monomer-free hemozoin (equivalent to 2 mM free heme) as prepared above was incubated at 37° C. with […] test compound in total volume of 500 μl in acetate buffer (pH: 5.0) in siliconized Eppendorf tubes (Brinkmann Instruments, Westbury, N.Y.) for 16 hours. A control sample containing distilled H2O instead of hemozoin was included. The samples were centrifuged at 14,000 rpm (Eppendorf centrifuge model 5415C, Brinkmann Instruments, Westbury, N.Y.) for 20 min; then 225 μl supernatant was diluted in 175 μl acetate buffer (pH 5.0). Another 225 μl was added to 175 μl 0.5 M NaOH to dissolve possible oligomeric depolymerization products to monomers. Half of the pellet was washed twice for 2.5 hr in 200 μl 2.5% SDS (v/v) in dH2O, the other half was washed twice in 200 μl HCO3^− buffer (pH: 9.1). Both sample supernatants and SDS and HCO3^− buffer supernatants were centrifuged 14,000 rpm for 20 min. and supernatants were added to 10 μl sodium dithionite (200 mg/ml dH2O) to reduce the heme monomers in solution to Fe^2+. All samples were measured in triplicate at 540 nm (Model UV1601 spectrophotometer, Shimradzu Corp, Columbia, Md.). The OD obtained from the blind sample was subtracted from the OD of the hemozoin containing sample.

P. falciparum = P. falciparum growth in culture ([3H]-hypoxanthine incorporation); type: cell-based; settings: read-out: IC50 vs. P. falc.
Method: To determine the effectiveness of the compounds of the present invention against the erythrocytic stage of the malarial parasite, P. falciparum was grown in human erythrocyte suspensions and maintained at 37° C. in candle jars according to the method of Trager and Jensen (15,16). Parasites were stage-synchronized by incubating mainly ring-stage infected erythrocytes in 5% sorbitol for 10 minutes at room temperature (17). Cultures undergo one growth cycle (2 days) before use. Strains used include the chloroquine sensitive strains D10 and HB3, and the chloroquine resistant isolates Dd2 and FCR.
Parasite growth was determined by measuring incorporation of [^3H]-hypoxanthine into the nucleic acids of the parasite (18). Effects of the compounds of the present invention on parasite growth was determined by measuring the reduction in incorporation of radiolabel as compared to controls. Briefly, assays are performed in 96-well microtiter plates. After 24 h of candle jar incubation at 37° C., [^3H]-hypoxanthine is added to each well. After 18 h the plates are harvested onto glass fiber filter 96 well plates using a cell harvester, dried, and the amount of radioactivity is determined. Drug IC50 values (molar concentration which decreases [^3H]-hypoxanthine incorporation by 50% as compared to drug-free controls) are calculated by extrapolation of the log dose-response curves using curve fitting software (Origin, Microcal Software, Northampton, Mass.).
Parasites were grown in A^+ human erythrocyte suspensions using RPMI-1640 (GIBCO, Gaithersburg, Md.) medium supplemented by 25 mM HEPES (pH 7.35), 0.2% NaHCO3 (23 mM), 0.2% (D)-Glucose and 10% human A^+ plasma and maintained at 37° C. in candle jars according to the method of Trager and Jensen (20,21) Parasites are stage synchronized by incubating mainly ring-stage infected erythrocytes in 5% sorbitol for 10 minutes at room temperature (22). Cultures undergo one growth cycle (2 days) before use. Strains used include the chloroquine sensitive strains D10 and HB3, and the chloroquine resistant isolates Dd2 and FCR.
Parasite growth was determined by measuring incorporation of [^3H]-hypoxanthine into the nucleic acids of the parasite as previously described (23). Effects of the compounds of the present invention on parasite growth was determined by measuring the reduction in incorporation of radiolabel as compared to controls. Briefly, assays were performed in 96-well microtiter plates, each well containing 200 μl of synchronized ring-stage infected erythrocytes in complete media and 50 μl of drug dilution or solvent. The final hematocrit was 1.5% and percent parasitemias range from 2-8%. After 24 h of candle jar incubation at 37° C., 2.5 μCi of [^3H]-hypoxanthine (17 Ci/mmol, Amersham, Arlington Heights, Ill.) in RPMI-1640 media supplemented with 25 mM HEPES (pH 7.35), 0.2% NaHCO3 (23 mM), 0.2% (D)-Glucose is added to each well. After 18 h the plates were harvested onto glass fiber filter 96 well plates using a cell harvester, dried, and 25 μl scintillation acid added per well. The, amount of radioactivity was determined. Drug IC50 values (molar concentration which decreases [^3H]-hypoxanthine incorporation by 50% as compared to drug-free controls) are calculated by extrapolation of the log dose-response curves using curve fitting software (Origin, Microcal Software, Northampton, Mass.). The effects on parasite grown by aromatic guanyllhydrazones, bisguanylhydrazones, naphthothiazolium salts, and other compounds of the instant invention, together with data on hemozoin depolymerization from Example 5, are shown in tables 1 through 4, respectively.

[1] = Table 2, aromatic bisguanylhydrazones, growth in culture, [3H]-hypoxanthine incorporation

SMILES	% depol. hemoz. (synthetic hemozoin; Table 2)	IC50 (P. falciparum; [1])	also measured
CC(=NNC(=N)N)c1cccc(C(C)=NNC(=N)N)c1.Cl.Cl [2,2′-(1,3-phenylenediethylidyne)bis(hydrazinecarboximidamide) dihydrochloride]	0.4%	830 nM	
Cl.Cl.N=C(N)NN=Cc1cccc(C=NNC(=N)N)c1 [2,2′-(1,3-phenylenedimethylidyne)bis(hydrazinecarboximidamide) dihydrochloride]	0.1%	1000 nM	
CC(=NNC(=N)N)c1cccc(C(C)=NNC(=N)N)n1.Cl.Cl [2,2′-(2,6-pyridinediyldiethylidyne)bis(hydrazinecarboximidamide) dihydrochloride]	0.0%	2000 nM	
CC(=NNC(=N)N)c1cncc(C(C)=NNC(=N)N)c1.Cl.Cl [2,2′-(3,5-pyridinediyldiethylidyne)bis(hydrazinecarboximidamide) dihydrochloride]	0.3%	400 nM	
CC(CCC1=C(CCC(C)=NNC(=N)N)C(=O)c2ccccc2C1=O)=NNC(=N)N.Cl.Cl [2,2′-[(1,4-dihydro-1,4-dioxo-2,3-naphthalenediyl)bis(1-methyl-3-propanyl-1-ylidene)]bis(hydrazinecarboximidamide)dihydrochloride]			% depol. hemoz. (synthetic hemozoin; Table 4): 0.3%; IC50 (P. falciparum; Table 4, in culture, [3H]-hypoxanthine incorporation): 800 nM
COc1c(C=NNC(=N)N)cc(C)cc1C=NNC(=N)N.Cl.Cl [2,2′-[(2-methoxy-5-methyl-1,3-phenylene)dimethylidyne]bis(hydrazinecarboximidamide) dihydrochloride]	2.0%	2300 nM	
CC(=NNC(=N)N)c1cc(C(C)=NNC(=N)N)c(O)cc1O.Cl.Cl [2,2′-[(4,6-dihydroxy-1,3-phenylene)diethylidyne]bis(hydrazinecarboximidamide) dihydrochloride]	2.6%	7000 nM	
CC(=NNC(=N)N)c1ccc(O)c(C(C)=NNC(=N)N)c1.Cl.Cl [2,2′-[(4-hydroxy-1,3-phenylene)diethylidyne]bis(hydrazinecarboximidamide) dihydrochloride]	0.6%	2600 nM	
Cl.Cl.N=C(N)NN=Cc1ccc(O)c(C=NNC(=N)N)c1 [2,2′-[(4-hydroxy-1,3-phenylene)dimethylidyne]bis(hydrazinecarboximidamide) dihydrochloride]	2.2%	5500 nM	
CC(=NNC(=N)N)c1cc(N)cc(C(C)=NNC(=N)N)c1.Cl.Cl [2,2′-[(5-amino-1,3-phenylene)diethylidyne]bis(hydrazinecarboximidamide) dihydrochloride]	0.3%	4000 nM	
CC(=NNC(=N)N)c1cc(O)cc(C(C)=NNC(=N)N)c1.Cl.Cl [2,2′-[(5-hydroxy-1,3-phenylene)diethylidyne]bis(hydrazinecarboximidamide) dihydrochloride]	0.0%	1400 nM	
Cl.N=C(N)NN=Cc1c(O)ccc2ccccc12 [2-[(2-hydroxy-1-naphthyl)methylidene]hydrazinecarboximidamide monohydrochloride]			% depol. hemoz. (synthetic hemozoin; Table 1): 4.3%; IC50 (P. falciparum; Plasmodium falciparum): 1800 nM
Cc1c(O)c2ccccc2c2c1sc(NCCCN(CCO)CCO)[n+]2C [2-[[3-[bis(2-hydroxyethyl)amino]propyl]imino]-1,2-dihydro-1,4-dimethylnaphtho[1,2-d]thiazol-5-ol dihydrochloride]			% depol. hemoz. (synthetic hemozoin; Table 3): 2.9%; IC50 (P. falciparum; Plasmodium falciparum): 200 nM
Cl.N=C(N)NN=Cc1c(N)oc2ccc(Cl)cc2c1=O [2-amino-3-[(aminoiminomethyl)hydrazono]methyl]-6-chloro-4H-1-benzopyran-4-one hydrochloride]			% depol. hemoz. (synthetic hemozoin; Table 1): 0.6%; IC50 (P. falciparum; Table 1, aryl monoguanylhydrazones, growth in culture, [3H]-hypoxanthine incorporation): 3250 nM
Cc1c(O)c2ccccc2c2sc(NCCCN3CCOCC3)nc12 [4-methyl-2-[[3-(4-morpholino)propyl]amino]naphtho[1,2-d]thiazol-5-ol dihydrochloride]			IC50 (P. falciparum; Table 3, naphthothiazolium salts, in culture, [3H]-hypoxanthine incorporation): 600 nM
C/C(=N\NC(=N)N)c1cccc(NC(=O)CCCC(=O)Nc2cccc(/C(C)=N/NC(=N)N)c2)c1 [dihydrochloride]			% depol. hemoz. (synthetic hemozoin; Table 4): 0%; IC50 (P. falciparum; Plasmodium falciparum): 800 nM
